Marks after values point to notes of the source that are not given here.
Experiments:
[1] = tested on: B16-F10 murine melanoma cells; assay: Melanogenesis inhibition assay (melanin content, absorbance at 450 nm); assay type: cell-based; conditions: Mus musculus, 72 h, read-out: Melanogenesis % of control; for activity at 500 µM: 0.5 mmol/L (footnote *); for activity at 100 µM: 0.1 mmol/L; for activity at 1000 µM: 1.0 mmol/L
Procedure: Melanocytes (B16-F10/CRL-6475 murine melanoma cells, purchased from ATCC) were cultured in Dulbecco's Modified Eagle's Medium (DMEM)/Ham's F-12 50:50 mix with L-glutamine w/out phenol red/10% (v/v) newborn calf serum/1% (v/v) 100× Invitrogen Cat #15240-062 Antibiotic-Antimycotic at 37° C. (i.e., the growth medium) in a humidified atmosphere with 5% CO2. The cells were seeded into 12.5 cm^2 tissue culture flasks at a concentration of 1.0×10^5 cells/mL. A 3-mL cell suspension (seed medium) was added to each flask. The test compounds were dissolved in dimethyl sulfoxide (DMSO) at a concentration of 0.5 M. This 0.5 M stock was used to prepare various concentrations of the test compounds in growth medium, with the final concentration of DMSO at 0.2% by weight. Growth medium with diluted test compound is referred to as the dose medium. The controls were treated in the same manner, but without the test compound. After 24 hrs of incubation, the seed medium was replaced with 3 mL of dose medium (growth medium with various concentrations of test samples or control compounds). The dose medium was […] day, and the incubation continued for an additional 2 days. The dose medium was removed. The cells were dissolved in 1 mL of 1 N NaOH during incubation at 80° C. for 10 min. Samples of extracted melanin were transferred to a 96-well plate, and the absorbance was read at 450 nm. Each experiment was repeated three times. Kojic acid, arbutin, and hydroquinone were used as positive controls.

[2] = tested on: B16-F10 murine melanoma cells; assay: Cell viability assay (MTT); assay type: cell-based
Procedure: After incubating the melanocytes with test samples or control compounds as mentioned above, 330 μL of a MTT solution (5 mg/mL MTT in standard medium with no added serum or antibiotic) was added. […] After orbital shaking for 10 min at room temperature, 1 mL of the contents of each flask was transferred to microfuge tubes and centrifuged for 10 min. 200 μL of each tube were then transferred to a 96-well plate, and the relative extent of MTT reduction was determined based on the absorbance at 590 nm. […] Kojic acid, arbutin, and hydroquinone were used as positive controls.

[3] = 0.5 mmol/L (footnote *), MTT, B16-F10 cells

`Sc1ncccn1` [2-Mercapto-Pyrimidine, 2-Mercaptopyrimidine, reference compound] was tested, and the activity at 250 µM ([1]; 0.25 mmol/L) was 42%, the activity at 500 µM [1] was 35% and the “Cell Viability % of control” value ([2]; 0.25 mmol/L, MTT, B16-F10 cells, no replication) was 81** % of control. The “Cell Viability % of control” value [2, 3] was 68* % of control.
With `OC[C@H]1O[C@@H](Oc2ccc(O)cc2)[C@H](O)[C@@H](O)[C@@H]1O` [Arbutin, arbutin, reference compound] the activity at 100 µM [1] was 92%, the activity at 1000 µM [1] was 83% and the “Cell Viability % of control” value ([2]; 0.1 mmol/L, MTT, B16-F10 cells) was 125 % of control. The “Cell Viability % of control” value ([2]; 1.0 mmol/L, MTT, B16-F10 cells) was 134 % of control.
In the case of `COC(=O)CSc1ncccn1` [Comparative Example 1, Methyl 2-(pyrimidin-2′-ylthio)acetate, reference compound], the activity at 100 µM [1] is reported as 115%, the activity at 1000 µM [1] is reported as 98% and the “Cell Viability % of control” value ([2]; 0.1 mmol/L, MTT, B16-F10 cells) is reported as 114 % of control. The “Cell Viability % of control” value ([2]; 1.0 mmol/L, MTT, B16-F10 cells) was 117 % of control.
For `COC(=O)CCSc1ncccn1` [Comparative Example 2, Methyl 3-(Pyrimidin-2′-ylthio)propionate, reference compound], the activity at 100 µM [1] was 98%, the activity at 500 µM [1] was 96% and the “Cell Viability % of control” value ([2]; 0.1 mmol/L, MTT, B16-F10 cells) was 88 % of control. For the same compound, the “Cell Viability % of control” value [2, 3] was 84* % of control.
`CC(=O)Sc1ncccn1` [Example 1, Pyrimidin-2-yl Thiolacetate] was tested, and the activity at 100 µM [1] was 71%, the activity at 1000 µM [1] was 33% and the “Cell Viability % of control” value ([2]; 0.1 mmol/L, MTT, B16-F10 cells) was 100 % of control. For the same compound, the “Cell Viability % of control” value ([2]; 1.0 mmol/L, MTT, B16-F10 cells) was 6.6 % of control.
For `CCC(=O)Sc1ncccn1` [Example 2, Pyrimidin-2-yl Thiolpropionate], the activity at 100 µM [1] was 67%, the activity at 1000 µM [1] was 36% and the “Cell Viability % of control” value ([2]; 0.1 mmol/L, MTT, B16-F10 cells) was 113 % of control. The “Cell Viability % of control” value ([2]; 1.0 mmol/L, MTT, B16-F10 cells) was 13.6 % of control.
For `CCOC(=O)Sc1ncccn1` [Example 3, O-Ethyl-5-pyrimidin-2-yl Monothiolcarbonate], the activity at 100 µM [1] was 81%, the activity at 1000 µM [1] was 36% and the “Cell Viability % of control” value ([2]; 0.1 mmol/L, MTT, B16-F10 cells) was 87 % of control. For the same compound, the “Cell Viability % of control” value ([2]; 1.0 mmol/L, MTT, B16-F10 cells) was 32 % of control.
`CC(C)(C)C(=O)Sc1ncccn1` [Example 5, Pyrimidin-2′-yl 2,2-Dimethylpropanethioate] was tested, and the activity at 100 µM [1] was 66%, the activity at 1000 µM [1] was 28% and the “Cell Viability % of control” value ([2]; 0.1 mmol/L, MTT, B16-F10 cells) was 91 % of control. For the same compound, the “Cell Viability % of control” value ([2]; 1.0 mmol/L, MTT, B16-F10 cells) was 7 % of control.
In the case of `O=C(Sc1ncccn1)c1ccccc1` [Example 6, Pyrimidin-2-yl Thiolbenzoate], the activity at 100 µM [1] is reported as 69%, the activity at 1000 µM [1] is reported as 39% and the “Cell Viability % of control” value ([2]; 0.1 mmol/L, MTT, B16-F10 cells) is reported as 91 % of control. For the same compound, the “Cell Viability % of control” value ([2]; 1.0 mmol/L, MTT, B16-F10 cells) was 69 % of control.
For `O=C(Sc1ncccn1)c1cccnc1` [Example 7, S-Pyrimidin-2′-yl Pyridine-3-carbothioate], the activity at 100 µM [1] was 72%, the activity at 1000 µM [1] was 27% and the “Cell Viability % of control” value ([2]; 0.1 mmol/L, MTT, B16-F10 cells) was 101 % of control. The “Cell Viability % of control” value ([2]; 1.0 mmol/L, MTT, B16-F10 cells) was 3.5 % of control.
In the case of `O=C(Sc1ncccn1)c1ccncc1` [Example 8, S-Pyrimidin-2′-yl Pyridine-4-carbothioate], the activity at 100 µM [1] is reported as 70%, the activity at 500 µM [1] is reported as 38% and the “Cell Viability % of control” value ([2]; 0.1 mmol/L, MTT, B16-F10 cells) is reported as 92 % of control. For the same compound, the “Cell Viability % of control” value [2, 3] was 36* % of control.
With `Oc1ccc(O)cc1` [Hydroquinone, hydroquinone, reference compound] the activity at 500 µM [1] was 33% and the “Cell Viability % of control” value ([2]; mouse, 0.5 mmol/L) was 3* % of control.
For `O=c1cc(CO)occ1O` [Kojic acid, reference compound], the activity at 100 µM [1] was 94%, the activity at 1000 µM [1] was 86% and the “Cell Viability % of control” value ([2]; mouse, 0.1 mmol/L) was 116 % of control. The “Cell Viability % of control” value ([2]; mouse, 1 mmol/L) was 92 % of control.

Source: US20130273183A1, “2-Pyrimidine Thioesters and Thiocarbonates as Skin Brightening Agents” (EASTMAN CHEMICAL COMPANY, priority 2012, published 2013)
